According to the NIST ThermoML archive (doi:10.1016/j.jct.2011.10.023):

Conditions: Liquid, Vibrating tube method

CCCCCCCO [heptan-1-ol]
mass density [kg/m3]
Conditions	278.15 K	288.15 K	298.15 K	308.15 K	318.15 K	328.15 K	338.15 K	348.15 K	358.15 K
100 kPa	832.4	825.5	818.5	811.4	804.3	797.1	789.7	782.1	774.2
1000 kPa	833	826.1	819.1	812.1	805	797.8	790.4	782.9	775.1
5000 kPa	835.4	828.6	821.8	814.7	807.9	800.9	793.7	786.3	778.7
10000 kPa	838.3	831.7	824.9	818.3	811.4	804.6	797.5	790.4	783
15000 kPa	841.2	834.7	828.1	821.5	814.8	808.1	801.2	794.2	787.1
20000 kPa	843.9	837.6	831.1	824.6	818.1	811.5	804.7	797.9	790.9
25000 kPa	846.4	840.4	833.9	827.6	821.2	814.7	808.1	801.4	794.6
30000 kPa	849.2	843.1	836.7	830.5	824.2	817.8	811.4	804.8	798.2
35000 kPa	851.7	845.7	839.5	833.3	827.1	820.8	814.6	808.1	801.5
40000 kPa	854.2	848.2	842.1	836	829.9	823.8	817.5	811.3	804.9
45000 kPa	856.6	850.7	844.7	838.7	832.7	826.6	820.6	814.3	808.1
50000 kPa	859	853.1	847.2	841.3	835.4	829.4	823.4	817.3	811.1
55000 kPa	861.3	855.5	849.7	843.8	838	832.1	826.2	820.2	814.1
60000 kPa	863.4	857.8	852.1	846.1	840.4	834.5	828.7	822.8	816.9

CCCCCCO [hexan-1-ol]
mass density [kg/m3]
Conditions	278.15 K	288.15 K	298.15 K	308.15 K	318.15 K	328.15 K	338.15 K	348.15 K	358.15 K
100 kPa	828.9	822.1	814.9	807.8	800.5	793	785.4	777.6	769.4
1000 kPa	829.5	822.7	815.6	808.4	801.2	793.7	786.2	778.4	770
5000 kPa	832	825.3	818.4	811.4	804.3	797	789.6	782	774.2
10000 kPa	835	828.5	821.7	814.8	807.9	800.8	793.6	786.2	778.6
15000 kPa	838	831.6	824.9	818.2	811.4	804.4	797.4	790.2	782.8
20000 kPa	840.8	834.6	828	821.4	814.7	807.9	801	794.1	786.9
25000 kPa	843.6	837.4	830.9	824.5	817.9	811.2	804.5	797.6	790.7
30000 kPa	846.3	840.2	833.8	827.5	821	814.4	807.9	801.2	794.3
35000 kPa	848.9	842.9	836.6	830.3	824	817.6	811.1	804.6	797.9
40000 kPa	851.4	845.5	839.4	833.2	826.9	820.6	814.2	807.8	801.3
45000 kPa	853.9	848	842	835.9	829.7	823.5	817.3	811	804.6
50000 kPa	856.3	850.5	844.6	838.5	832.4	826.4	820.2	814	807.7
55000 kPa	858.7	853	847.1	841.1	835.1	829.1	823.1	817	810.8
60000 kPa	860.9	855.4	849.6	843.5	837.7	831.6	825.7	819.7	813.5

CCO [ethanol]
mass density [kg/m3]
Conditions	278.15 K	288.15 K	298.15 K	308.15 K	318.15 K	328.15 K	338.15 K	348.15 K	358.15 K
100 kPa	801.9	793.4	784.8	776.1	767.4	758.4	749.1	739.5	729.5
1000 kPa	802.7	794.2	785.6	777	768.3	759.4	750.2	740.7	730.7
5000 kPa	805.9	797.6	789.3	780.9	772.4	763.7	754.8	745.6	736
10000 kPa	809.9	801.8	793.6	785.4	777.2	768.8	760.1	751.3	742.1
15000 kPa	813.6	805.8	797.7	789.7	781.7	773.6	765.2	756.6	747.7
20000 kPa	817.2	809.5	801.7	793.9	786	778.1	769.9	761.6	753
25000 kPa	820.6	813.1	805.3	797.8	790.1	782.4	774.4	766.4	758
30000 kPa	824	816.6	809	801.5	794	786.5	778.7	770.8	762.8
35000 kPa	827.2	819.9	812.5	805.2	797.8	790.4	782.8	775.1	767.2
40000 kPa	830.3	823.1	815.9	808.7	801.4	794.2	786.7	779.2	771.5
45000 kPa	833.3	826.3	819.2	812	804.9	797.8	790.5	783.1	775.6
50000 kPa	836.3	829.3	822.3	815.3	808.3	801.3	794.1	786.9	779.5
55000 kPa	839.1	832.3	825.4	818.5	811.6	804.7	797.7	790.5	783.3
60000 kPa	841.8	835	828.1	821.4	814.6	807.8	800.8	793.8	786.7

CCCCCCCCCCCO [1-undecanol]
mass density [kg/m3]
Conditions	298.15 K	308.15 K	318.15 K	328.15 K	338.15 K	348.15 K	358.15 K
100 kPa	827.7	820.9	814.1	807.4	800.5	793.3	786
1000 kPa	828.2	821.5	814.7	808	801.1	793.8	786.8
5000 kPa	830.7	824	817.4	810.8	803.9	797.1	790
10000 kPa	833.6	827.1	820.6	814.1	807.3	800.8	793.9
15000 kPa	836.4	830	823.7	817.3	810.6	804.3	797.6
20000 kPa	839.2	832.9	826.6	820.4	813.8	807.6	801.1
25000 kPa	841.8	835.6	829.5	823.3	816.9	810.8	804.4
30000 kPa	844.4	838.3	832.3	826.2	819.9	813.9	807.7
35000 kPa	846.9	840.9	834.8	829	822.8	816.9	810.8
40000 kPa	849.4	843.4	837.6	831.7	825.6	819.9	813.9
45000 kPa	851.8	845.9	840.1	834.4	828.4	822.7	816.6
50000 kPa	854.2	848.3	842.6	837	831	825.5	819.6
55000 kPa	856.5	850.7	845.1	839.5	833.6	828.1	822.4
60000 kPa	858.7	852.9	847.3	841.8	836	830.7	824.9
